Data as given in PubChem BioAssay (NCI).
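Results reflect a 48-hour exposure of cells in 96-well plates to compound at five concentrations. Abbreviation: GI50, concentration required for 50% inhibition of growth. At the TGI there is no net growth.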

Experiments:
Assay in all cases: NCI-60 cell line screen, 48 h
CCRF-CEM leukemia = tested on: CCRF-CEM leukemia
A549 NSCLC = tested on: A549 NSCLC
SNB-75 CNS = tested on: SNB-75 CNS
NCI-H226 lung = tested on: NCI-H226 lung
MCF7 breast = tested on: MCF7 breast
HL-60(TB) leukemia = tested on: HL-60(TB) leukemia
SR leukemia = tested on: SR leukemia
LOX IMVI melanoma = tested on: LOX IMVI melanoma
OVCAR-8 ovarian = tested on: OVCAR-8 ovarian
SK-MEL-28 melanoma = tested on: SK-MEL-28 melanoma

Row | Compound | TGI (CCRF-CEM leukemia) [µM] | TGI (A549 NSCLC) [µM] | TGI (SNB-75 CNS) [µM] | GI50 (NCI-H226 lung) [µM] | TGI (NCI-H226 lung) [µM] | TGI (MCF7 breast) [µM] | TGI (HL-60(TB) leukemia) [µM] | GI50 (SR leukemia) [µM] | TGI (SR leukemia) [µM] | TGI (LOX IMVI melanoma) [µM] | TGI (OVCAR-8 ovarian) [µM] | TGI (SK-MEL-28 melanoma) [µM]
1 | COc1ccc2c(c1)/C(=C\c1cccc(/C=C3/C(=O)Nc4ccc(OC)cc43)n1)C(=O)N2 | > 38 | > 100 | > 100 | 1.54 | 4.16 | > 25.6 | 2.05 | 0.209 | 0.452 | 1.24 | > 25.4 | 
2 | O=C(/C=C\c1ccccc1-c1ccccc1)c1ccccc1 | > 100 | 91.9 | > 100 |  | > 100 |  | > 100 |  | > 100 |  | > 100 | 
3 | O=c1[nH]n(Cc2ccccc2CCl)c2ccc([N+](=O)[O-])cc12 | > 100 | > 100 |  |  | > 100 | > 100 | 99.6 |  | > 100 | > 100 | > 100 | > 100
4 | COc1ccc(/C=C/[N+](=O)[O-])cc1 |  |  | > 100 |  | 17.4 | 5.83 | 8.82 |  | 5.48 |  | 5.9 | 28.3
5 | CC(C)N1CCCOC(c2ccc([N+](=O)[O-])cc2)O1 (stereo not given) | > 100 | > 100 | > 100 |  | > 100 | > 100 |  |  | > 100 | > 100 | > 100 | > 100
6 | COc1ccc(-c2cc(-c3ccco3)c(C#N)c(=S)n2C2OC(CO)C(O)C(O)C2O)cc1 (stereo not given) | > 100 | > 100 | > 100 |  | > 100 | > 100 |  |  |  | > 100 | > 100 | > 100
7 | O=C1c2ccccc2C(=O)c2c(O)c(O)cc(O)c21 | > 100 | > 100 | > 100 |  |  |  | 56.5 |  |  | > 100 | > 100 | > 100
8 | O=c1c2c3c(sc2nc2n1N=CN(c1ccc(Cl)cc1)C2)CCCC3 | > 100 | > 100 | > 100 |  | > 100 | > 100 |  |  | 51.1 | > 100 | > 100 | > 100
9 | C(/C=N/NC1=NCCCN1)=N\NC1=NCCCN1 | > 100 | > 100 | > 100 |  | > 100 | > 100 |  |  | > 100 | > 100 | > 100 | > 100
10 | CN1CCN(C(=S)N(C)C(=O)c2cccs2)CC1 | > 100 | > 100 |  |  | > 100 | > 100 |  |  | > 100 | > 100 | > 100 | 
11 | COC(=O)/C(=C/CC(N=C(c1ccccc1)c1ccccc1)C(=O)OC)N=C(c1ccccc1)c1ccccc1 (stereo not given) | > 100 | > 100 | 83.9 |  |  |  | > 100 |  | > 100 | > 100 | > 100 | > 100
12 | CCCCc1ccc(N2C(=O)c3cccnc3S2(=O)=O)cc1 | > 100 | > 100 | > 100 |  | > 100 | > 100 | > 100 |  | > 100 |  | > 100 | > 100
13 | Cc1ccnc2nc3[nH]c4ccccc4c3cc12 | > 100 | > 100 | 85.8 |  | > 100 | > 100 |  |  | > 100 | > 100 | > 100 | 
14 | Nc1ccc(C(=O)NN2C(=O)C(Cl)C2c2ccccc2O)cc1 (stereo not given) | > 100 | > 100 | > 100 |  | > 100 |  | 48 |  |  | > 100 | > 100 | > 100
15 | Cc1cc(NCC2CC/C(=C\C=C\c3ccccc3)C2=O)no1 (stereo not given) | > 100 | > 100 |  |  | > 100 | > 100 | > 100 |  | > 100 | > 100 | > 100 | > 100
16 | Cc1cc2nc3c(C#N)c(-c4ccccc4)cc(Nc4ccc(F)cc4)n3c2cc1C |  |  | 57.5 |  | 73.7 |  |  |  |  | 29 | 25.5 | > 100
17 | O=C(/C=C/c1cccs1)c1ccc(C(=O)/C=C/c2cccs2)cc1 |  | > 100 | > 100 |  | > 100 |  |  |  | > 100 |  | > 100 | > 100
18 | COC(=O)/C(C#N)=C(\Nc1ccccc1)N1CCCCC1 |  | > 100 | > 100 |  | > 100 | > 100 | > 100 |  | > 100 | > 100 | > 100 | > 100
19 | Cc1n[nH]c(=O)n1/N=C/c1cccnc1 | > 100 | > 100 |  |  | > 100 | > 100 | > 100 |  | > 100 | > 100 | > 100 | > 100
20 | CN(C)CCN1C(=O)c2ccccc2C1(O)c1ccc(Cl)cc1 (stereo not given) | > 100 | > 100 | > 100 |  | > 100 | > 100 | > 100 |  |  |  | > 100 | > 100
21 | O=c1[nH]c(=O)n(C2CC(O)C(CO)O2)c2nc3ccc4ccccc4c3nc12 (stereo not given) | > 100 | > 100 | > 100 |  | > 100 | > 100 |  |  | > 100 | > 100 | > 100 | > 100
22 | O=S1(=O)OCCCOS(=O)(=O)C1Br |  | > 100 | > 100 |  | > 100 | > 100 |  |  | > 100 | > 100 | > 100 | > 100
23 | CCOC(=O)c1c(NC(=O)c2ccc(OC)cc2)sc2c1CCCC2 | > 100 | > 100 |  |  | > 100 | > 100 | > 100 |  | > 100 |  | > 100 | > 100
24 | CC1(C)N=C(N)N=C(N)N1c1cccc(OCc2cccc([N+](=O)[O-])c2)c1 | > 100 | > 100 | > 100 |  | > 100 | > 100 | 58.2 |  |  | > 100 | > 100 | > 100
25 | CSc1ccc(-c2cc(-c3nc4ccccc4[nH]3)nc3[nH]c(-c4nc5ccccc5[nH]4)cc(=O)c23)cc1 | > 100 | > 100 | > 100 |  | > 100 | > 100 | > 100 |  | > 100 | > 100 | > 100 | 
